Measured values as given in US7807368B2, “Cyclin-dependent kinase inhibitors as targets for opiod growth factor treatment” (priority 2006, dated 2010).

Key:
[1] = test system: PANC-1 cells; experiment: Growth curves of PANC-1 cells transfected with p21 siRNA or negative control siRNA; type: cell-based, human; conditions: for decrease of growth: PANC-1 cells transfected with negative control siRNAs
Description: Human pancreatic cancer cell lines BxPC-3, PANC-1, and Capan-2 were obtained from the American Type Culture Collection (Manassas, Va.), and cultured in RPMI, Dulbecco's Modified Medium, or McCoy's 5A medium, respectively. All media were supplemented with 10% fetal bovine serum, 1.2% sodium bicarbonate, and 0.25% antibiotics (5000 units/ml penicillin, 5 μg/ml streptomycin and 10 μg/ml neomycin). OGF was purchased from Sigma-Aldrich (St. Louis, Mo.), dissolved in sterile water, and used at a final concentration of 10^−6 M.
The p21-targeted siRNAs were obtained from Santa Cruz Biotechnology, and negative control siRNAs were purchased from Ambion (Ambion, Inc., Austin, Tex.). For transfection, 2×10^5 cells per well were seeded in 6-well plates containing 1 ml of media without antibiotics. For each well, 1 μl of siRNA stock (20 μM) was mixed with 175 μl of serum-free media. Two μl of Oligofectamine reagent (Invitrogen, Carlsbad, Calif.) was added to prewashed cells in each well, making the final concentration for siRNA approximately 20 nM. Cells were incubated for 4 hours at 37° C. prior to the addition of OGF. Eighteen hours later, 1 ml fresh complete media with or without OGF was added to the cultures; media and OGF were replaced daily. At the indicated time points, cells were collected for growth curves or Western blotting.

[2] = test system: Normal Human Neo-Epidermal Keratinocyte cells (NHEK); experiment: Growth of NHEK cells; type: cell-based; conditions: 10^-6 M OGF
Description: OGFr is required for OGF action on growth. Normal Human Neo-Epidermal Keratinocyte cells (NHEK) were transfected with OGFr siRNAs or control siRNAs for 72 h in the presence of 10^−6 M OGF, 10^−6 M NTX, or sterile water. Cells were harvested at 72 h and counted with a hemacytometer. Data represent means±SE for 2 independent experiments. Cell numbers differed from wt cells or cells transfected with the negative control siRNA and treated with sterile water at p<0.05 (*), p<0.01 (**), or […]. […] At 72 hr, OGF-treated cultures had 20% fewer cells and at 96 hr, OGF-treated cultures had 32% fewer cells than sterile-water treated control cultures.

[3] = test system: SCC-1 cells; experiment: Growth curves of SCC-1 cells (viable cell counts, hemacytometer); type: cell-based, human; conditions: 10^-6 M OGF
Description: The SCC-1 (UM-SCC-1) cell line was obtained from the University of Michigan Cancer Research Laboratory, and CAL-27 and SCC-4 cells were obtained from the American Type Culture Collection (Manassas, Va.). SCC-1 and CAL-27 cells were cultured in DMEM media, whereas SCC-4 cells were grown in 1:1 Hams F-12 DMEM media. All media was supplemented with 10% fetal bovine serum (HyClone, Logan, Utah), 1.2% sodium bicarbonate, and 5000 units/ml penicillin, 5 μg/ml streptomycin and 10 μg/ml neomycin. OGF was purchased from Sigma-Aldrich (St. Louis, Mo.), dissolved in sterile water, and used at a final concentration of 10^−6 M.
Cell growth and flow cytometry. For growth curves, cells were seeded in 6-well plates at an initial density of ˜2×10^5 cells/well. Fresh media and OGF were added 24 h after initial seeding, and media and OGF were replaced daily. At appropriate times, the cells were washed with PBS, trypsinized, and viable cell numbers were counted by trypan blue exclusion using a hemacytometer.

[4] = test system: Rb protein; experiment: Western blot of Rb, phospho-Rb, p105 and p107 in synchronized SCC-1 cells; type: cell-based, human
Description: Synchronized cells (˜2×10^6) from each treatment were solubilized in 200 μl RIPA buffer (1×PBS, 10 μM IGEPAL, 1 mg/ml SDS, 5 mg/ml deoxycholic acid), containing protease and phosphatase inhibitors (2 μg/ml aprotinin, 3 mg/ml phenylmethyl sulfonyl fluoride (PMSF), 1 mM sodium orthovanidate, 1 μM okadaic acid). Total protein concentrations were measured using the DC protein assay kit (Bio-Rad Laboratories, Hercules, Calif.). Equal amounts of protein (40 μg) were subjected to 10% SDS-PAGE followed by transfer of proteins onto polyvinylidene difluoride (Millipore, Billerica, Mass.) using standard protocols. The following antibodies were purchased from commercial sources: phospho-Rb (Ser795), phospho-Rb (Ser807/811) (Cell Signaling Technology, Beverly, Mass.); phospho-Rb (Thr821) (Biosource, Camarillo, Calif.); Cdk4, cyclin D1, p15, p16, p18, p19 (Santa Cruz Biotechnology, Santa Cruz, Calif.); total Rb, p21, p27 (BD PharMingen, San Diego, Calif.); β-actin (Clone AC-15, Sigma). The following dilutions of primary antibodies were used to detect respective proteins. 1:200 phospho-Rb (Ser795), 1:200 phospho-Rb (Ser807/811); 1:200 phospho-Rb (Thr821); 1:200 Cdk4, 1:200 cyclin D1, 1:100 p16; 1:200 total Rb, 1:200 p21, 1:100 p27. […]
To determine equal loading of total protein samples, blots were reprobed with monoclonal antibody against β-actin at a dilution of 1:2000. […] Means and SE were determined from 3 or more independent experiments.
To quantify expression levels or kinase activity, the optical density of each band was determined by densitometry and analyzed by QuickOne (Bio-Rad Laboratories). […] To report the changes due to OGF treatment, the fold increase was calculated by dividing the normalized value from the OGF treated samples by the normalized value of control samples at each time point; thus, increases due to OGF have values greater than one, and decreases due to OGF have values less than one.

## [Met^5]-enkephalin [OGF]
[1]; 72 hours
  decrease of growth: 34.1%
[1]; 96 hours
  decrease of growth: 35.5%
[1]; PANC-1 cells transfected with p21 siRNA
  effect on growth of cells lacking p21: no inhibitory effect
[2]; 72 hr
  fewer cells than control cultures: 20%
[2]; 96 hr
  fewer cells than control cultures: 32%
[2]; growth curve data
  doubling time: 57.1 h
[3]; 72 h
  Cell number compared to controls: 87.5%
[3]; 96 h
  Cell number compared to controls: 59.0%
[3]; linear regression of growth data
  mean doubling time: approximately 41.3 h
[4]; OGF treatment, Western blot
  phospho-Rb (pT821) levels: did not alter
[4]; after 14 h of OGF treatment
  Expression of total Rb protein: not decreased
[4]; after exposure to OGF
  Total levels of p105 and p107: no changes
